Series [1] relates to BALB/c mice. Kind of series: Acute toxicity after oral administration (Acute Toxicity test TG425). Format: in vivo. The settings on record: female BALB/c mice, oral by gastric probe, 40 mg of substance in corn oil, three mice, observed two weeks. An excerpt:
The study was planned according to Acute Toxicity Test 425 (oral administration) - higher-lower-dose procedure, in accordance with the OECD regulation of October 3, 2008. The test procedure described in these guidelines is useful in minimizing the number of animals needed to estimate the acute toxicity after oral administration of potential drugs. In addition to the LD50 assessment and confidence intervals, the test allows for the observation of signs of toxicity. For this purpose, an experiment was agreed upon with the Local Ethics Committee for Animal Experimentation, using BALB/c mice. The TG425 method allows for the estimation of LD50 values with confidence intervals, and the results allow for the classification of substances according to the global harmonized system for the classification of chemicals that cause acute toxicity.
A sequential test, utilizing a maximum of 5 animals, was applied, which is known as the limit test. A test dose of either 2000 or uniquely 5000 mg/kg can be used. The testing procedures at 2000 and 5000 mg/kg differ slightly (see Sections 23-25 for the limit test at 2000 mg/kg and Sections 26-30 for the limit test at 5000 mg/kg). The selection of a sequential testing plan increases the statistical power, and a deliberate deviation from the limit test rejection procedure was made for compounds with an LD50 near the limit dose; i.e. committing an error on the side of caution. As with any limit test protocol, the probability of correct compound classification will decrease, as the actual LD50 value more closely resembles the limit dose.
• 1. Female Balb/c mice, which were 50-56 days postpartum, were used for the purposes of this experiment. • 2. Mice underwent a 1-week quarantine after being transported to the laboratory. • 3. The studied molecules (PER154A, PER160A, PER170A, PER176A) were suspended according to the TG425 protocol, i.e. 40 mg of substance in […] of laboratory corn oil and orally administered through a plastic gastro probe (used: 20ga (0.9 mm OD x 0.5 mm ID), 38 mm), which was suitable for the size of the animal (17-21 g). The mice were observed and weighed almost daily. • 4. Mouse housing conditions: up to 4 mice per cage; temperature: 23.2 - 23.40°C; humidity: 27.6 - 40.9% relative humidity. • 5. Two weeks later (time counted separately for each mouse), a resection was performed to analyze internal organs for any abnormalities.

In series [2] the test system is SW620 cells (with RASG12V mutation). Nature of the series: Crystal violet cytotoxicity test (IC50) in KRASG12V positive cells. In kind it is cell-based. The settings on record: for toxicity towards KRASG12V positive cells (SW620) compared to normal cells (NIH/3T3): ratio from IC50 values, crystal violet test, 72 hours incubation; for toxicity against cancer cells expressing KRASG12V: summary statement. An excerpt: IC50 (half-maximal inhibitory concentration) is the concentration value of a tested compound which inhibits biochemical and biological functions of cells in half of the tested population. Determining this indicator is extremely important for assessing the cytotoxicity of molecules with therapeutic potential.
The first step in developing the methodology for determining IC50 was to conduct density tests to determine the appropriate number of cells to use in cytotoxicity tests. The different content of bovine fetal serum in the culture medium was also investigated to rule out any potential impact on the reduction in cell count, regardless of the analyzed molecules.
As a research model, colon cancer and lung cancer cell lines (sensitive lines) were used, including SW620, SW480, and COR-L23, respectively, which are characterized by the KRASG12V gene mutation and lack of other alterations in genes belonging to the RAS protein signaling pathway, as well as a stable line of normal cells (mouse fibroblasts), which serve as a platform for evaluating the impact of tested compounds on non-cancer cells. Below is the result for one of the analyzed cell lines with the mutation. Similar differences in IC50 values compared to normal cells were obtained for the other cell lines mentioned above with the RASG12V mutation.
The effect of molecules on the biology of selected cell lines to assess their cytotoxicity using the IC50 indicator was carried out according to the protocol below: • 1. The cells of the tested lines were seeded in wells of a 96-well plate at specified densities. • 2. After seeding, the cells were subjected to a 24-hour incubation in medium with a 1% and 2.5% addition of serum (sensitive lines) or in medium with a 0.5% addition of serum (normal line). • 3. The cells were exposed to selected molecules at selected concentrations. The control was provided by the culture medium without any added compounds. Concentrations of the tested molecules [uM]: • □ NIH3T3: 500; 250; 125; 62,5; 31,25 • □ SW620: 60; 30; 15; 7,5; 3,75 • 4. After 72 hours of incubation, the culture medium was removed and the cells were washed twice with buffer saline solution (PBS). Then, the cells were incubated for 10 minutes with a 0.1% solution of crystal violet at room temperature (Merck Millipore). • 5. After 10 minutes, the crystal violet solution was removed and the wells of the 96-well plate were washed twice with PBS solution. • 4. 50% ice-cold acetic acid solution was added to each well and incubated again for 10 minutes at room temperature on a shaker at 650 rpm. • 5. Absorbance measurement was performed using a plate reader, at a wavelength of λ = 540 nm

Series [3] has as its system NCI-H1975. Kind of series: Toxicity against cancer cells expressing wild type RAS. Format: cell-based. The settings on record: summary statement. The procedure: The results of in vitro analyses were presented in the examples. Commercially available cancer cell lines were used for the studies, including SW480, SW620, and COR-L23, showing endogenous expression of KRASG12V, as well as a cell line with exogenously introduced KRASG12V mutation (using methods of genetic engineering) - the DK-MGEGFRvIIIKRASG12V line. Additionally, the cancer cell line NCI- H1975, characterized by the expression of wild type RASWT proteins, was also analyzed.

As for `O=C(Nc1ccc(F)cc1)c1ccc2c(c1)C1C3CCC(C3)C1C(c1ccccc1)N2` (centres unmarked) [PER160A], in series [1], the “safety in acute oral toxicity test” value is on record as “safe for mice”. In addition, in series [2], the “toxicity towards KRASG12V positive cells (SW620) compared to normal cells (NIH/3T3)” value was “over 36 times” and the “toxicity against cancer cells expressing KRASG12V” value was “toxicity”. For the same molecule, the “toxicity against cancer cells expressing normal RAS protein” value in series [3] is given as “no toxicity”.

With `O=C(Nc1ccc2c(c1)OCCO2)c1ccc2c(c1)C1C3CCC(C3)C1C(c1ccccc1)N2` (centres unmarked) [PER154A], the “safety in acute oral toxicity test” value in series [1] is “safe and safe for mice”. For the same molecule, in series [2], the “toxicity towards KRASG12V positive cells (SW620) compared to normal cells (NIH/3T3)” value was “about 85 times” and the “toxicity against cancer cells expressing KRASG12V” value was “toxicity”. The “toxicity against cancer cells expressing normal RAS protein” value in series [3] was “no toxicity”.
